Data: US20120184591A1, “METHODS FOR TREATING PROSTATITIS” (WATSON PHARMACEUTICALS, INC., priority 2011, published 2012)
Values belong to the molecule of their own block, whether it stands above or below them.

What was measured:
[1] = Study SI06004: plasma pharmacokinetics of silodosin and metabolites, 8 mg once daily for 7 days; assay type: in vivo, human; conditions: for Tmax: 8 mg once daily, immediate-release
Experimental: FIG. 2 depicts the mean steady-state silodosin plasma concentration versus time profile in fed target-aged subjects after administering 8 mg silodosin QD (from Study SI06004).
This is illustrated in Table 1 and FIG. 2. Study SI06004 assessed the area under the plasma concentration time curve for silodosin and four of its metabolites, as well as safety and tolerability, following administration of 8 mg once daily for 7 days.

patients with CP/CPPS = conditions: 10 mg once daily, versus placebo; cited from earlier work
[2] = Study SI07004: silodosin pharmacokinetics after seven daily doses of 4 mg or 8 mg in healthy male subjects; assay type: in vivo, human; conditions: after 7 days of dosing; for AUC(0-t) / half-life / Cmax / Tmax: male, human, plasma
Text: FIG. 3 depicts the mean silodosin plasma concentration time profile by dose level and timepoint after multiple doses (from Study SI07004).

men with CP/CPPS [3] = assay: 12-week double-blind placebo-controlled Phase II study (NCT00740779): efficacy (NIH-CPSI, SF-12, GRA); assay type: in vivo, human; conditions: for SF-12 mental component, adjusted mean difference versus placebo (95% CI) / SF-12 mental component, change from baseline, mean ± SD / SF-12 physical component, adjusted mean difference versus placebo (95% CI) / SF-12 physical component, change from baseline, mean ± SD: study end, ITT
Experimental: (§1) A 12-week, multicenter, double-blind, placebo-controlled, Phase II study (ClinicalTrials.gov identifier: NCT00740779) was conducted between September 2008 and October 2009. The protocol was approved by an Institutional Review Board before study initiation, and the study was conducted in accordance with the Declaration of Helsinki and the US Code of Federal Regulations. The primary end point was change from baseline to week 12 in the NIH—CPSI total score. Secondary end points included safety; change from baseline in NIH—CPSI pain, urinary, and HRQoL subscores; and change from baseline in SF-12 physical and mental component scores. In addition, responder analyses were conducted for the global response assessment (GRA) and NIH—CPSI at week 12.
Study participants were recruited from 32 centers across the United States, including mostly community-based practices and a few university medical centers. […] Patients were excluded if they had participated in a study of an investigational agent within the past 30 days, had experienced two or more urinary tract infections within the previous 12 months, or had medical conditions potentially precluding safe study participation or affecting study results, such as significant postural hypotension, abnormal test results of digital rectal examinations (except benign prostate enlargement), prostate-specific antigen >10.0 ng/mL, and liver or renal insufficiency. Patients treated with medications that might confound study results, such as α-blockers (for conditions other than CP/CPPS), 5α-reductase inhibitors, tricyclic antidepressants, androgens, and ketoconazole, had to undergo appropriate washout periods to be eligible.
(§2) Patients were randomized 1:1:1 to receive silodosin 4 mg, silodosin 8 mg, or placebo once daily with food at breakfast for 12 weeks. Two doses of silodosin were chosen to evaluate the dose dependency of treatment effects in patients with CP/CPPS. The maximum dose of silodosin 8 mg/d was selected based on its established safety and efficacy profile in patients with BPH.
(§3) Baseline parameters were assessed after a 4-week screening period. All efficacy assessments were made with self-administered patient surveys. Patients completed the NIH—CPSI and subscales, GRA scale, and pain medication usage surveys at baseline and at weeks 4, 8, and 12 of the study. SF-12 was completed at baseline and at study end (week 12 or time of discontinuation). Safety was monitored over the course of the study through adverse events reporting, clinical laboratory tests, and vital signs assessments.
(§4) All efficacy and safety data were summarized using descriptive statistics for continuous variables and frequency distributions for categorical variables. Efficacy end points were analyzed in the intent-to-treat (ITT) population, which consisted of all randomized patients with a baseline assessment for the NIH—CPSI total score. The primary efficacy variable and continuous secondary variables were analyzed for significance at α=0.05 (with Bonferroni correction for multiple comparisons) using analysis of covariance models with the baseline measurement of the efficacy variable as the covariate and effects of treatment. Because of the small number of patients in many participating centers, study center was not included in statistical analysis models. All analyses were conducted with SAS® v8.2 (SAS Institute Inc., Cary, N.C.). Last observation carried forward (LOCF) was used to impute missing values. […] GRA and NIH—CPSI responder analyses were done with chi-square tests at α=0.025 (two-sided) to account for multiple comparisons.

men with CP/CPPS [4] = assay: 12-week Phase II study (NCT00740779): safety and tolerability (adverse events); assay type: in vivo, human
Experimental: as §1, §2, §3, §4

α1A receptor = biological target: T1, α1A receptor (Homo sapiens, UniProt P35348); conditions: cited from earlier work
T1 sequence (P35348 1-466): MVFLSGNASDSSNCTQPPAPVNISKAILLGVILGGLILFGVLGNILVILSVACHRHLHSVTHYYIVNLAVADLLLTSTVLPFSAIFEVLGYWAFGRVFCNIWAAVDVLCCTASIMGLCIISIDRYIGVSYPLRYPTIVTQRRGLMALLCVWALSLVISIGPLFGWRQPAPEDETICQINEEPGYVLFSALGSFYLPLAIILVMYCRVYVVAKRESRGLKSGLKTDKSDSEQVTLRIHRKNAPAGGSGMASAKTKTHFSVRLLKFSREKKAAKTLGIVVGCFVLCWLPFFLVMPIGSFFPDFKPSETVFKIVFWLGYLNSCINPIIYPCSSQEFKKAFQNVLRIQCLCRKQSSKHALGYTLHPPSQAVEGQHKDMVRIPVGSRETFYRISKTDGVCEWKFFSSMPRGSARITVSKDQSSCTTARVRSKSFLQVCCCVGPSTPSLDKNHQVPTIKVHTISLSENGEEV

[5] = 8 mg once daily for 7 days, mean (SD)
[6] = 4 mg, Week 12 ET (early termination counted as nonresponse)

- AUC(0-24) [1, 5]: 1660.5 (647.23) ng * hr/mL
- Cmax [1, 5]: 102.4 (36.51) ng/mL
- Tmax ([1]; mean (SD)): 5.5 (2.29) hr
SMILES: C[C@H](Cc1cc2c(c(C(N)=O)c1)N(CCCO[C@@H]1O[C@H](C(=O)O)[C@@H](O)[C@H](O)[C@H]1O)CC2)NCCOc1ccccc1OCC(F)(F)F [3213G]

SMILES: COc1cc2nc(N(C)CCCNC(=O)C3CCCO3)nc(N)c2cc1OC (stereo not shown) [alfuzosin]
- Reducing the symptoms of CP/CPPS (patients with CP/CPPS): not more effective than placebo

- AUC(0-24) [1, 5]: 373.0 (141.72) ng * hr/mL
- Cmax [1, 5]: 34.3 (12.58) ng/mL
- Tmax ([1]; mean (SD)): 4.1 (1.29) hr
SMILES: C[C@H](Cc1cc2c(c(C(N)=O)c1)N(CCC(=O)O)CC2)NCCOc1ccccc1OCC(F)(F)F [compound 3293]

- Tmax ([1]; human, plasma, oral, 8 mg, mean (SD), read-out: Tmax): ~2.6 h
- AUC(0-t) ([1]; human, plasma, oral, 8 mg once daily for 7 days, mean (SD), read-out: AUC(0-24)): 373 ng·h/mL
- Cmax ([1]; human, plasma, oral, 8 mg once daily for 7 days, mean (SD), read-out: Cmax): 61.6 ng/mL
- half-life ([1]; human, plasma, oral, 8 mg once daily for 7 days, mean ± SD): 13.3 h
- kel, median ([2]; 4 mg): 0.0489 h⁻¹
- kel, mean ([2]; 4 mg, n 19): 0.0552 h⁻¹
- kel, median ([2]; 8 mg): 0.0573 h⁻¹
- kel, mean ([2]; 8 mg, n 21): 0.0551 h⁻¹
- AUC(0-t) ([2]; 4 mg, N = 22, read-out: AUC [0-24], mean): 159 ng·h/mL
- half-life ([2]; 4 mg, n 19, read-out: t½, mean (converted)): 15.3 h
- AUC(0-t) ([2]; 4 mg, read-out: AUC [0-24], median): 156 ng·h/mL
- Cmax ([2]; 4 mg, read-out: Cmax, mean): 28.4 ng/mL
- Cmax ([2]; 4 mg, read-out: Cmax, median): 26.1 ng/mL
- Tmax ([2]; 4 mg, read-out: Tmax, mean): 2.4 h
- Tmax ([2]; 4 mg, read-out: Tmax, median): 2 h
- half-life ([2]; 4 mg, read-out: t½, median (converted)): 14.2 h
- AUC(0-t) ([2]; 8 mg, N = 22, read-out: AUC [0-24], mean): 297 ng·h/mL
- half-life ([2]; 8 mg, n 21, read-out: t½, mean (converted)): 14.4 h
- AUC(0-t) ([2]; 8 mg, read-out: AUC [0-24], median): 276 ng·h/mL
- Cmax ([2]; 8 mg, read-out: Cmax, mean): 51.1 ng/mL
- Cmax ([2]; 8 mg, read-out: Cmax, median): 50.3 ng/mL
- Tmax ([2]; 8 mg, read-out: Tmax, mean): 2.5 h
- Tmax ([2]; 8 mg, read-out: Tmax, median): 2 h
- half-life ([2]; 8 mg, read-out: t½, median (converted)): 12.1 h
SMILES: C[C@H](Cc1cc2c(c(C(N)=O)c1)N(CCCO)CC2)NCCOc1ccccc1OCC(F)(F)F [silodosin]
- SF-12 mental component, adjusted mean difference versus placebo (95% CI) (men with CP/CPPS [3]; 4 mg once daily): 1.5 (−1.9, 4.9)
- SF-12 mental component, change from baseline, mean ± SD (men with CP/CPPS [3]; 4 mg once daily): 3.2 ± 7.3
- SF-12 physical component, adjusted mean difference versus placebo (95% CI) (men with CP/CPPS [3]; 4 mg once daily): 3.0 (0.01, 6.0)
- SF-12 physical component, change from baseline, mean ± SD (men with CP/CPPS [3]; 4 mg once daily): 4.2±8.1
- NIH-CPSI pain score, adjusted mean difference versus placebo (95% CI) (men with CP/CPPS [3]; 4 mg once daily, week 12, ITT): −1.6 (−3.4, 0.3)
- NIH-CPSI pain score, change from baseline, mean ± SD (men with CP/CPPS [3]; 4 mg once daily, week 12, ITT): −5.9 ± 4.5
- NIH-CPSI quality-of-life impact score, adjusted mean difference versus placebo (95% CI) (men with CP/CPPS [3]; 4 mg once daily, week 12, ITT): −1.5 (−2.8, −0.3)
- NIH-CPSI quality-of-life impact score, change from baseline, mean ± SD (men with CP/CPPS [3]; 4 mg once daily, week 12, ITT): −4.1 ± 3.1
- NIH-CPSI total score, change from baseline, mean ± SD (men with CP/CPPS [3]; 4 mg once daily, week 12, ITT): −12.1±9.3
- NIH-CPSI urinary symptoms score, adjusted mean difference versus placebo (95% CI) (men with CP/CPPS [3]; 4 mg once daily, week 12, ITT): −1.4 (−2.5, −0.3)
- NIH-CPSI urinary symptoms score, change from baseline, mean ± SD (men with CP/CPPS [3]; 4 mg once daily, week 12, ITT): −2.2 ± 2.7
- GRA responders, patients (men with CP/CPPS [3]; [6]): 55.8%
- NIH-CPSI responders, patients (men with CP/CPPS [3]; [6]): 59.6%
- SF-12 mental component, adjusted mean difference versus placebo (95% CI) (men with CP/CPPS [3]; 8 mg once daily): −1.4 (−4.9, 2.1)
- SF-12 mental component, change from baseline, mean ± SD (men with CP/CPPS [3]; 8 mg once daily): 0.5 ± 7.2
- SF-12 physical component, adjusted mean difference versus placebo (95% CI) (men with CP/CPPS [3]; 8 mg once daily): 2.7 (−0.4, 5.8)
- SF-12 physical component, change from baseline, mean ± SD (men with CP/CPPS [3]; 8 mg once daily): 4.4 ± 7.0
- NIH-CPSI pain score, adjusted mean difference versus placebo (95% CI) (men with CP/CPPS [3]; 8 mg once daily, week 12, ITT): −0.5 (−2.4, 1.4)
- NIH-CPSI pain score, change from baseline, mean ± SD (men with CP/CPPS [3]; 8 mg once daily, week 12, ITT): −4.9 ± 5.0
- NIH-CPSI quality-of-life impact score, adjusted mean difference versus placebo (95% CI) (men with CP/CPPS [3]; 8 mg once daily, week 12, ITT): −0.7 (−2.0, 0.5)
- NIH-CPSI quality-of-life impact score, change from baseline, mean ± SD (men with CP/CPPS [3]; 8 mg once daily, week 12, ITT): −3.5 ± 3.0
- NIH-CPSI urinary symptoms score, adjusted mean difference versus placebo (95% CI) (men with CP/CPPS [3]; 8 mg once daily, week 12, ITT): −0.8 (−1.9, 0.3)
- NIH-CPSI urinary symptoms score, change from baseline, mean ± SD (men with CP/CPPS [3]; 8 mg once daily, week 12, ITT): −1.8 ± 2.4
- NIH-CPSI responders, patients (men with CP/CPPS [3]; 8 mg, Week 12 ET (early termination counted as nonresponse)): 46.7%
- Drug-related adverse events leading to discontinuation, all (men with CP/CPPS [4]; 4 mg): 3 n
- Drug-related adverse events leading to discontinuation: RE/libido decreased (men with CP/CPPS [4]; 4 mg): 1 n
- Drug-related adverse events leading to discontinuation: ejaculation failure (men with CP/CPPS [4]; 4 mg): 1 n
- Drug-related adverse events leading to discontinuation: rash (men with CP/CPPS [4]; 4 mg): 1 n
- Patients who discontinued study participation because of a drug-related adverse event (men with CP/CPPS [4]; 4 mg): 5.8%
- Drug-related adverse event: Headache, patients (men with CP/CPPS [4]; 4 mg, safety population (n = 52)): 0 n
- Patients who experienced serious adverse events (men with CP/CPPS [4]; 4 mg, not considered drug-related by the investigator (severe urosepsis; moderate syncope)): Two
- Drug-related adverse events leading to discontinuation, all (men with CP/CPPS [4]; 8 mg): 6 n
- Drug-related adverse events leading to discontinuation: RE (men with CP/CPPS [4]; 8 mg): 4 n
- Drug-related adverse events leading to discontinuation: nasal congestion (men with CP/CPPS [4]; 8 mg): 2 n
- Patients who discontinued study participation because of a drug-related adverse event (men with CP/CPPS [4]; 8 mg): 13.3%
- Selectivity for the α1A receptor relative to α1B and α1D receptors (α1A receptor): high selectivity
